Values quoted from earlier work in EP3728136B1 (Easymining Sweden AB, priority 2017, dated 2019).

Tested on: biogas-producing bacteria
Conditions: concentration of free ammonia increased to 620 mg/l; Siles et al., 2010

N [ammonia]
gradual decrease of biogas production: 21%
